In ChEMBL document CHEMBL1156596, “Overcoming undesirable CYP1A2 inhibition of pyridylnaphthalene-type aldosterone synthase inhibitors: influence of heteroaryl derivatization on potency and selectivity” (J Med Chem, 2008):
Values belong to the compound of their own block, whether it stands above or below them.

Legend:
[1] = target: T1, Cytochrome P450 11B2, mitochondrial (Homo sapiens, UniProt P19099); test: Inhibition of human CYP11B2 expressed in hamster V79 MZh cells at 500 nM; assay type: cell-based; settings: V79MZh
T1 sequence (P19099 whole entry): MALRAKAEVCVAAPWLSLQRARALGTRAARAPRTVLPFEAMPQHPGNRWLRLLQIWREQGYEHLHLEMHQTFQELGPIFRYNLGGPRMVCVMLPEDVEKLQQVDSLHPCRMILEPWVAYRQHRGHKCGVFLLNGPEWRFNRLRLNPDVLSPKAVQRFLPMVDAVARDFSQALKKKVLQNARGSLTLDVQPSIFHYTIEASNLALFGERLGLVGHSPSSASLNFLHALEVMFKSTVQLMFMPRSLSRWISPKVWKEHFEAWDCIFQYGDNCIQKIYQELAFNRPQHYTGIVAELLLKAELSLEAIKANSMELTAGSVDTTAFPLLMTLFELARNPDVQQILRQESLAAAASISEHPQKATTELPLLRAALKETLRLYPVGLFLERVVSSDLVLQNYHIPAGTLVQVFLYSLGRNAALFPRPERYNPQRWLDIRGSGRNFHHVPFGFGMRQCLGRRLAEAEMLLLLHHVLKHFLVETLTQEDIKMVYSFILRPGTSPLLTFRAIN

[2] = Tmax in Wistar rat at 5 mg/kg, po; assay type: ADME, organism-based; parameters: dose 5 mg/kg, route oral; settings: in vivo
[3] = Plasma concentration in Wistar rat plasma at 5 mg/kg, po after 6 hrs; assay type: ADME, organism-based; parameters: dose 5 mg/kg, route oral
[4] = Plasma concentration in Wistar rat plasma at 5 mg/kg, po after 4 hrs; assay type: ADME, organism-based; parameters: dose 5 mg/kg, route oral
in vivo = settings: Wistar, rat, po, 5 mg/kg
[5] = Plasma concentration in Wistar rat plasma at 5 mg/kg, po after 2 hrs; assay type: ADME, organism-based; parameters: dose 5 mg/kg, route oral
CYP1A2 = target: T2, CYP1A2 (Homo sapiens, UniProt P05177); test: Inhibition of human recombinant CYP1A2 expressed in insect microsomes at 2 uM; assay type: ADME, Microsome
T2 sequence (P05177 whole entry): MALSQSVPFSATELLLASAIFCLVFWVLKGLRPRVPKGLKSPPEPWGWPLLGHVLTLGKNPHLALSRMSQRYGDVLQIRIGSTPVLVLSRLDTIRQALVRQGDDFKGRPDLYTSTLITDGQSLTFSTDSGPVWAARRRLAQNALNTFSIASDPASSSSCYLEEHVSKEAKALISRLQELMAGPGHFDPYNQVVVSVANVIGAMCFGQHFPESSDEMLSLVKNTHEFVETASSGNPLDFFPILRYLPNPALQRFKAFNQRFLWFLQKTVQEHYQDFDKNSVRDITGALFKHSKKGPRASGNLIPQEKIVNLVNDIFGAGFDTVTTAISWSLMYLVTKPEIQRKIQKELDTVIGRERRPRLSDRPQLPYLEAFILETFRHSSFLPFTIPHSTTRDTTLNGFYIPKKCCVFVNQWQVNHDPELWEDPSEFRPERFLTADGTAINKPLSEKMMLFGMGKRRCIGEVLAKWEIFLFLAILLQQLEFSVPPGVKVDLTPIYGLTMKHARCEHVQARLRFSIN

[6] = Plasma concentration in Wistar rat plasma at 5 mg/kg, po after 8 hrs; assay type: ADME, organism-based; parameters: dose 5 mg/kg, route oral
[7] = Cmax in Wistar rat at 5 mg/kg, po; assay type: ADME, organism-based; parameters: dose 5 mg/kg, route oral; settings: in vivo
[8] = Terminal half life in Wistar rat at 5 mg/kg, po; assay type: ADME, organism-based; parameters: dose 5 mg/kg, route oral; settings: in vivo
[9] = Plasma concentration in Wistar rat plasma at 5 mg/kg, po after 1 hr; assay type: ADME, organism-based; parameters: dose 5 mg/kg, route oral
[10] = target: T1, Cytochrome P450 11B2, mitochondrial
Homo sapiens = species: Homo sapiens; test: Selectivity ratio of IC50 for human CYP11B1 to IC50 for human CYP11B2
CYP11B1 = target: T3, CYP11B1 (Homo sapiens, UniProt P15538); test: in vitro; settings: hamster V79 MZh cells expressing human CYP11B1
T3 sequence (P15538 whole entry): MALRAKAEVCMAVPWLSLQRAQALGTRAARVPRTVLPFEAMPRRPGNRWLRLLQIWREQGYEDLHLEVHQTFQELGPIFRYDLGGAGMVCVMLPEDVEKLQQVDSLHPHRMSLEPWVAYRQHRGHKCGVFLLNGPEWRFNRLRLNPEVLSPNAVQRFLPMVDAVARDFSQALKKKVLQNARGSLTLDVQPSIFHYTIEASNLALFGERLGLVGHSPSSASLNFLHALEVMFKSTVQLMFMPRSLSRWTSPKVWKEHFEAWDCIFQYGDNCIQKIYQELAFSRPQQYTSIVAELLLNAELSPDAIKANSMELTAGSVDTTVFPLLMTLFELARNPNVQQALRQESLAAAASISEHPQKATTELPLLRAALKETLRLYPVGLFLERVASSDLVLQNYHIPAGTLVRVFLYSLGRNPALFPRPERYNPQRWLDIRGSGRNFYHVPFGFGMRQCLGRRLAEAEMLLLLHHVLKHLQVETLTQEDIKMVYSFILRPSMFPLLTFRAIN

inhibition at 0.5 µM [1]: 7%
SMILES: COc1ccc2cc(-c3cncc(C(=O)O)c3)ccc2c1

Tmax [2]: 1 h
concentration at 6 h [3]: 133 ng/mL
concentration at 4 h [4]: 124 ng/mL
AUC(0-inf) (in vivo; plasma): 1540 ng·h/mL
concentration at 2 h [5]: 145 ng/mL
inhibition at 2 µM (CYP1A2): 98%
concentration at 8 h [6]: 59.2 ng/mL
Cmax [7]: 222 ng/mL
half-life [8]: 5.4 h
concentration at 1 h [9]: 84.5 ng/mL
SMILES: COc1ccc2cc(-c3cccnc3)ccc2c1

IC50 [10]: 2.9 nM
Ratio IC50 (Homo sapiens): 239
inhibition at 2 µM (CYP1A2): 97%
IC50 (CYP11B1): 691 nM
SMILES: N#Cc1ccc2cc(-c3cccnc3)ccc2c1

Tmax [2]: 1 h
AUC(0-inf) (in vivo; in vivo): 3580 ng·h/mL
inhibition at 2 µM (CYP1A2): 8%
Cmax [7]: 454 ng/mL
half-life [8]: 2.2 h
SMILES: N#Cc1ccc(C2CCCc3cncn32)cc1 (stereo not given) [FADROZOLE]
